Measurements from ChEMBL document CHEMBL1158373, “GRIND-based 3D-QSAR and CoMFA to investigate topics dominated by hydrophobic interactions: the case of hERG K+ channel blockers” (Eur J Med Chem, 2009).

target: Voltage-gated inwardly rectifying potassium channel KCNH2 (Homo sapiens, UniProt Q12809); experiment: (§1) Inhibition of human ERG in MCF7 cells; conditions: not given
Sequence (Q12809 whole entry): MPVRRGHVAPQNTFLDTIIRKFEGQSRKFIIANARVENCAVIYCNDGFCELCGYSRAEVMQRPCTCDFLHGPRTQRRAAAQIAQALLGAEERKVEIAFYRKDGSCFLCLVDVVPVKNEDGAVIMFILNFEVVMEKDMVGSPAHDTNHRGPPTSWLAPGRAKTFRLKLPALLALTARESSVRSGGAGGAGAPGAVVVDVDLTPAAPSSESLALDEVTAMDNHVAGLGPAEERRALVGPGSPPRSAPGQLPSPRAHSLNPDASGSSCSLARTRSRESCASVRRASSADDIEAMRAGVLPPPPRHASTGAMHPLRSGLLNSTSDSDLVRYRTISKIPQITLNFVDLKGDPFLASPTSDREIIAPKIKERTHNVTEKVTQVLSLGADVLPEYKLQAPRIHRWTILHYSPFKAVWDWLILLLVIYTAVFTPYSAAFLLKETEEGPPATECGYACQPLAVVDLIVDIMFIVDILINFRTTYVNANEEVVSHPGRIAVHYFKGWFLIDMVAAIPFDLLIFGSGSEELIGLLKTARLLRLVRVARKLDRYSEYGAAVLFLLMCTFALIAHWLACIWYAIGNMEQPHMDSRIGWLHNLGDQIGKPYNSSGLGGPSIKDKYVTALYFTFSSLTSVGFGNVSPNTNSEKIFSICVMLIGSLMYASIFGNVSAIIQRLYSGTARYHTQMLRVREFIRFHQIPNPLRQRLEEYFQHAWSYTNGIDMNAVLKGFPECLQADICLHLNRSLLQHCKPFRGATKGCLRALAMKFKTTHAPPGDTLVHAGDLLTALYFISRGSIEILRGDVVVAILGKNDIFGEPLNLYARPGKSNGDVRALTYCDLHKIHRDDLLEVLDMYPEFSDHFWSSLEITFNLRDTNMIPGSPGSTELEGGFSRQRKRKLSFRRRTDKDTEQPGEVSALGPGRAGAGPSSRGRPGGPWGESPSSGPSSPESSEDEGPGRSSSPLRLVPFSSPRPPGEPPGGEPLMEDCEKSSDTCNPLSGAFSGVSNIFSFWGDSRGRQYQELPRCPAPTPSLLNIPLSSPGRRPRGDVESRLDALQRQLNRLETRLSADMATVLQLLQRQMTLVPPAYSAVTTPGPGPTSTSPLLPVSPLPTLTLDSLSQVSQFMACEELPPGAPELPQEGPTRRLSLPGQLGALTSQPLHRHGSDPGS

SMILES	IC50 [µM]
COc1c(N2CCNC(C)C2)c(F)cc2c(=O)c(C(=O)O)cn(C3CC3)c12 (stereo not given) [GATIFLOXACIN]	129

same assay, conditions: human, MCF7 cells

SMILES	pIC50
C[C@@H]1CN(c2c(F)c(N)c3c(=O)c(C(=O)O)cn(C4CC4)c3c2F)C[C@H](C)N1 [SPARFLOXACIN]	4.58

same assay, conditions: human, mcf7

SMILES	pIC50
CN(c1nccc(=O)[nH]1)C1CCN(c2nc3ccccc3n2Cc2ccc(F)cc2)CC1 [MIZOLASTINE]	6.45

target: hERG (KCNH2) (Homo sapiens, UniProt Q12809); experiment: as §1; conditions: human, mcf7
Sequence (Q12809 whole entry): as above

SMILES	IC50 [µM]
CN1CCN(CCCCN2C(=O)CN(/N=C/c3ccc(-c4ccc(Cl)cc4)o3)C2=O)CC1 [AZIMILIDE]	0.562

tested on: not listed separately; experiment: Lipophilicity, log D at pH 7.0; conditions: buffer

SMILES	logD
CN(C)CCCN1c2ccccc2Sc2ccc(Cl)cc21 [CHLORPROMAZINE]	2.99
COc1ccc(CCN2CCC(Nc3nc4ccccc4n3Cc3ccc(F)cc3)CC2)cc1 [ASTEMIZOLE]	4.14
C1CCC(C(CC2CCCCN2)C2CCCCC2)CC1 (stereo not given) [PERHEXILINE]	2.81
Fc1ccc(Cn2c(NC3CCNCC3)nc3ccccc32)cc1 [TECASTEMIZOLE]	0.16
CN1C2CCCC1CC(NC(=O)c1nn(C)c3ccccc13)C2 (stereo not given) [GRANISETRON]	-1.72
CN1CCN(CCCCN2C(=O)CN(/N=C/c3ccc(-c4ccc(Cl)cc4)o3)C2=O)CC1 [AZIMILIDE]	2.05
COc1cc(N)c(Cl)cc1C(=O)NC1CCN(CCCOc2ccc(F)cc2)CC1OC (stereo not given) [CISAPRIDE]	2.05
COc1ccc(Cl)cc1C(=O)NCCc1ccc(S(=O)(=O)NC(=O)NC2CCCCC2)cc1 [GLYBURIDE]	2.23
COc1c(N2CCNC(C)C2)c(F)cc2c(=O)c(C(=O)O)cn(C3CC3)c12 (stereo not given) [GATIFLOXACIN]	-2.96
O=C(CCCN1CC=C(n2c(=O)[nH]c3ccccc32)CC1)c1ccc(F)cc1 [DROPERIDOL]	2.25
O=c1[nH]c2ccccc2n1C1CCN(CCCC(c2ccc(F)cc2)c2ccc(F)cc2)CC1 [PIMOZIDE]	5.11
CN(C)CCC=C1c2ccccc2CCc2ccccc21 [AMITRIPTYLINE]	3.33
CCCCN(CCCC)CCC(O)c1cc2c(Cl)cc(Cl)cc2c2cc(C(F)(F)F)ccc12 (stereo not given) [HALOFANTRINE]	5.68
COC(=O)[C@H]1[C@@H](OC(=O)c2ccccc2)C[C@@H]2CC[C@H]1N2C [COCAINE]	0.41
CC(C)(C)c1ccc(C(O)CCCN2CCC(C(O)(c3ccccc3)c3ccccc3)CC2)cc1 (stereo not given) [TERFENADINE]	4.11
CN(c1nccc(=O)[nH]1)C1CCN(c2nc3ccccc3n2Cc2ccc(F)cc2)CC1 [MIZOLASTINE]	1.96

SMILES	logD
CCCc1nn(C)c2c(=O)[nH]c(-c3cc(S(=O)(=O)N4CCN(C)CC4)ccc3OCC)nc12	2.29
COCC(=O)O[C@]1(CCN(C)CCCc2nc3ccccc3[nH]2)CCc2cc(F)ccc2[C@@H]1C(C)C [MIBEFRADIL]	1.96
CN1CCN(C2=Nc3cc(Cl)ccc3Nc3ccccc32)CC1 [CLOZAPINE]	4.41
O=C1NCCN1CCN1CCC(c2cn(-c3ccc(F)cc3)c3ccc(Cl)cc23)CC1 [SERTINDOLE]	2.65
O=C(O[C@@H]1C[C@@H]2C[C@H]3C[C@H](C1)N2CC3=O)c1c[nH]c2ccccc12 [DOLASETRON]	2.6
Cc1c(F)c(N2CCNC(C)C2)cc2c1c(=O)c(C(=O)O)cn2C1CC1 (stereo not given) [GREPAFLOXACIN]	-1.47
CC(C)COCC(CN(Cc1ccccc1)c1ccccc1)N1CCCC1 (stereo not given) [BEPRIDIL]	4.49
Cc1nc2n(c(=O)c1CCN1CCC(c3noc4cc(F)ccc34)CC1)CCCC2 [RISPERIDONE]	0.71
COc1ccc([C@@H]2Sc3ccccc3N(CCN(C)C)C(=O)[C@@H]2OC(C)=O)cc1 [DILTIAZEM]	1.62
CSc1ccc2c(c1)N(CCC1CCCCN1C)c1ccccc1S2 (stereo not given) [THIORIDAZINE]	3.83
O=C(CCCN1CCC(O)(c2ccc(Cl)cc2)CC1)c1ccc(F)cc1 [HALOPERIDOL]	1.82
CN(CCOc1ccc(NS(C)(=O)=O)cc1)CCc1ccc(NS(C)(=O)=O)cc1 [DOFETILIDE]	0.68
C[C@@H]1CN(c2c(F)c(N)c3c(=O)c(C(=O)O)cn(C4CC4)c3c2F)C[C@H](C)N1 [SPARFLOXACIN]	-3.4
O=C1Cc2cc(CCN3CCN(c4nsc5ccccc45)CC3)c(Cl)cc2N1 [ZIPRASIDONE]	3.93
O=c1[nH]c2ccccc2n1CCCN1CCC(n2c(=O)[nH]c3cc(Cl)ccc32)CC1 [DOMPERIDONE]	3.15
